Data: US9993494B2, “Compositions and methods for treating fibrotic disease” (eFFECTOR Therapeutics, Inc., priority 2014, dated 2018)

Tested on: normal human lung fibroblasts
Assay: Ribosomal profiling: translational efficiency in TGFβ-treated fibroblasts
Format: cell-based
Conditions: TGFβ-treated fibroblasts
Summary of the method: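 Cells lysed on ice after a cold PBS wash containing cycloheximide. Ribosome-protected fragments and total mRNA were prepared with the ARTseq kit and sequenced by RNA-Seq. Reads were trimmed, mapped to the human genome and counted uniquely over coding regions per gene, with low-count genes excluded before differential translational-efficiency analysis.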

CC(C)n1nc(-c2cc3cc(O)ccc3[nH]2)c2c(N)ncnc21 [PP242]
effect in renormalizing the translational profile of the gene (gene RPS6KA5 (ENSG00000100784)): + (+ = 0.9 to 1.5)
effect in renormalizing the translational profile of the gene (gene RPS7 (ENSG00000171863)): − (− = <0.9)
effect in renormalizing the translational profile of the gene (gene RPS8 (ENSG00000142937)): − (− = <0.9)
effect in renormalizing the translational profile of the gene (gene RPS9 (ENSG00000170889)): − (− = <0.9)
effect in renormalizing the translational profile of the gene (gene RPS10 (ENSG00000124614)): − (− = <0.9)
effect in renormalizing the translational profile of the gene (gene RPS11 (ENSG00000142534)): − (− = <0.9)
effect in renormalizing the translational profile of the gene (gene RPS12 (ENSG00000112306)): − (− = <0.9)
effect in renormalizing the translational profile of the gene (gene RPS13 (ENSG00000110700)): − (− = <0.9)
effect in renormalizing the translational profile of the gene (gene RPS14 (ENSG00000164587)): − (− = <0.9)
effect in renormalizing the translational profile of the gene (gene RPS15 (ENSG00000115268)): + (+ = 0.9 to 1.5)
effect in renormalizing the translational profile of the gene (gene RPS15A (ENSG00000134419)): + (+ = 0.9 to 1.5)
effect in renormalizing the translational profile of the gene (gene RPS16 (ENSG00000105193)): − (− = <0.9)
effect in renormalizing the translational profile of the gene (gene RPS18 (ENSG00000231500)): + (+ = 0.9 to 1.5)
effect in renormalizing the translational profile of the gene (gene RPS19 (ENSG00000105372)): − (− = <0.9)
effect in renormalizing the translational profile of the gene (gene RPS20 (ENSG00000008988)): − (− = <0.9)
effect in renormalizing the translational profile of the gene (gene RPS21 (ENSG00000171858)): − (− = <0.9)
effect in renormalizing the translational profile of the gene (gene RPS23 (ENSG00000186468)): − (− = <0.9)
effect in renormalizing the translational profile of the gene (gene RPS24 (ENSG00000138326)): − (− = <0.9)
effect in renormalizing the translational profile of the gene (gene RPS25 (ENSG00000118181)): − (− = <0.9)
effect in renormalizing the translational profile of the gene (gene RPS26 (ENSG00000197728)): − (− = <0.9)
effect in renormalizing the translational profile of the gene (gene RPS27 (ENSG00000177954)): − (− = <0.9)
effect in renormalizing the translational profile of the gene (gene RPS27A (ENSG00000143947)): − (− = <0.9)
effect in renormalizing the translational profile of the gene (gene RPS28 (ENSG00000233927)): + (+ = 0.9 to 1.5)
effect in renormalizing the translational profile of the gene (gene RPS29 (ENSG00000213741)): + (+ = 0.9 to 1.5)
effect in renormalizing the translational profile of the gene (gene RPSA (ENSG00000168028)): − (− = <0.9)
effect in renormalizing the translational profile of the gene (gene RTN2 (ENSG00000125744)): − (− = <0.9)
effect in renormalizing the translational profile of the gene (gene SEMA3A (ENSG00000075213)): − (− = <0.9)
effect in renormalizing the translational profile of the gene (gene SGIP1 (ENSG00000118473)): − (− = <0.9)
effect in renormalizing the translational profile of the gene (gene SH3BGR (ENSG00000185437)): − (− = <0.9)
effect in renormalizing the translational profile of the gene (gene SHC3 (ENSG00000148082)): − (− = <0.9)
effect in renormalizing the translational profile of the gene (gene SLC2A12 (ENSG00000146411)): − (− = <0.9)
effect in renormalizing the translational profile of the gene (gene SLC7A7 (ENSG00000155465)): − (− = <0.9)
effect in renormalizing the translational profile of the gene (gene SLC15A3 (ENSG00000110446)): − (− = <0.9)
effect in renormalizing the translational profile of the gene (gene SLC25A6 (ENSG00000169100)): − (− = <0.9)
effect in renormalizing the translational profile of the gene (gene SLC40A1 (ENSG00000138449)): − (− = <0.9)
effect in renormalizing the translational profile of the gene (gene SMO (ENSG00000128602)): − (− = <0.9)
effect in renormalizing the translational profile of the gene (gene SNRPA (ENSG00000077312)): − (− = <0.9)
effect in renormalizing the translational profile of the gene (gene SOX5 (ENSG00000134532)): − (− = <0.9)
effect in renormalizing the translational profile of the gene (gene SOX6 (ENSG00000110693)): − (− = <0.9)
effect in renormalizing the translational profile of the gene (gene SPATA6 (ENSG00000132122)): + (+ = 0.9 to 1.5)
effect in renormalizing the translational profile of the gene (gene STAMBPL1 (ENSG00000138134)): − (− = <0.9)
effect in renormalizing the translational profile of the gene (gene STS (ENSG00000101846)): − (− = <0.9)
effect in renormalizing the translational profile of the gene (gene SYNE2 (ENSG00000054654)): − (− = <0.9)
effect in renormalizing the translational profile of the gene (gene TAF1D (ENSG00000166012)): − (− = <0.9)
effect in renormalizing the translational profile of the gene (gene TDG (ENSG00000139372)): − (− = <0.9)
effect in renormalizing the translational profile of the gene (gene TEN1 (ENSG00000257949)): − (− = <0.9)
effect in renormalizing the translational profile of the gene (gene TET2 (ENSG00000168769)): − (− = <0.9)
effect in renormalizing the translational profile of the gene (gene TET3 (ENSG00000187605)): − (− = <0.9)
effect in renormalizing the translational profile of the gene (gene TGFBI (ENSG00000120708)): − (− = <0.9)
effect in renormalizing the translational profile of the gene (gene THBS3 (ENSG00000169231)): + (+ = 0.9 to 1.5)
effect in renormalizing the translational profile of the gene (gene THG1L (ENSG00000113272)): − (− = <0.9)
effect in renormalizing the translational profile of the gene (gene TIMM9 (ENSG00000100575)): − (− = <0.9)
effect in renormalizing the translational profile of the gene (gene TKT (ENSG00000163931)): − (− = <0.9)
effect in renormalizing the translational profile of the gene (gene TMTC1 (ENSG00000133687)): − (− = <0.9)
effect in renormalizing the translational profile of the gene (gene TOMM7 (ENSG00000196683)): − (− = <0.9)
effect in renormalizing the translational profile of the gene (gene TOP2A (ENSG00000131747)): − (− = <0.9)
effect in renormalizing the translational profile of the gene (gene TPGS1 (ENSG00000141933)): − (− = <0.9)
effect in renormalizing the translational profile of the gene (gene TPM2 (ENSG00000198467)): − (− = <0.9)
effect in renormalizing the translational profile of the gene (gene TPT1 (ENSG00000133112)): − (− = <0.9)
effect in renormalizing the translational profile of the gene (gene TRERF1 (ENSG00000124496)): − (− = <0.9)
effect in renormalizing the translational profile of the gene (gene UBA52 (ENSG00000221983)): − (− = <0.9)
effect in renormalizing the translational profile of the gene (gene UQCRB (ENSG00000156467)): − (− = <0.9)
effect in renormalizing the translational profile of the gene (gene UTRN (ENSG00000152818)): − (− = <0.9)
effect in renormalizing the translational profile of the gene (gene VIM (ENSG00000026025)): − (− = <0.9)
effect in renormalizing the translational profile of the gene (gene ZNF581 (ENSG00000171425)): − (− = <0.9)
effect in renormalizing the translational profile of the gene (gene ZNF608 (ENSG00000168916)): − (− = <0.9)
